In EP2468718A1, “Cabanillasin, a new antifungal compound, produced by entomopathogenic xenorhabdus cabanillasii” (Nosopharm, priority 2010, dated 2012):
Converted amounts (≈) assume the structure as drawn. Like-named read-outs stand apart in the source and are kept apart here.

Legend:
Assay in all cases: Antifungal susceptibility testing, NCCLS M27-A2 broth microdilution (yeasts)
Format in all cases: cell-based
[1] = system: Candida krusei ATCC 6258; conditions: Pichia kudriavzevii, ATCC6258; for inhibition at 0.09 µg/mL / inhibition at 0.19 µg/mL / inhibition at 0.39 µg/mL / inhibition at 0.78 µg/mL / inhibition at 1.56 µg/mL / inhibition at 3.12 µg/mL / inhibition at 6.25 µg/mL / inhibition at 12.5 µg/mL / inhibition at 25 µg/mL / inhibition at 50 µg/mL: read-out: % of growth inhibition
Description: (§1) Cabanillasin activity was tested against different fungal human pathogens: ascomycetes yeasts (Candida albicans ATCC 90029, Candida Glabrata ATCC 90030, Candida krusei ATCC 6258 and Candida lusitaniae CBS 6936), basidiomycetes yeasts (Cryptococcus neoformans clinical strain), ascomycetes filamentous fungi (Aspergilus fumigatus clinical strain, Fusarium oxysporum clinical strain) and zygomycetes filamentous fungi (Rhizopus oryzae environemental strain) by the M38-A microdilution method with RPMI 1640 medium (RPMI 1640, MOPS 160 mM, glucose 18 g/L, pH 7) as recommended in the […]. The NCCLS M27-A2 broth microdilution method (NCCLS) was used when yeasts were tested.
(§2) Yeasts and filamentous inoculi were prepared on YPD medium (yeast extract 10 g/L, peptone 10 g/L and glucose 20 g/L) and Malt medium (malt extract 20 g/L) respectively. The densities of inoculi were adjusted by dilution in RPMI 1640 broth to a value ranged from 5.10^2 to 5.10^3 CFU/mL for yeasts isolates and 5.10^3 to 5.10^4 CFU/mL for filamentous fungi. Microdilution trays (96 U-bottom shaped) containing 190 µL fungal inoculum were added with 10 µL Cabanillasin solution (final concentration ranging from 50 to 0.098 mg/L for all fungi). After inoculation of the trays, all microdilution trays were incubated at 35°C in ambient air. The culture absorbance was measured at 600 nm, 24 h and 48 h after the beginning of the experiments for the yeasts and 48 h and 72 h after the beginning of the experiments for filamentous fungi and Cryptococcus neoformans. The activity results correspond to a percentage of growth inhibition ((1-Abs600 nm culture with Cabanillasin)/ Abs600 nm culture without Cabanillasin) x 100.
(§3) The IC50 value is the concentration at which inhibition of growth is equal to 50%. MICs for Candida species were determined at 24 h and 48 h and corresponded to 100% of growth inhibition. Amphotericin B was provided as standard (final concentration ranging from 16 to 0.03 mg/L for all fungi). Experiments were done in duplicate.

[2] = system: Candida lusitaniae CBS 6936; conditions: Clavispora lusitaniae, CBS6936; for inhibition at 0.09 µg/mL / inhibition at 0.19 µg/mL / inhibition at 0.39 µg/mL / inhibition at 0.78 µg/mL / inhibition at 1.56 µg/mL / inhibition at 3.12 µg/mL / inhibition at 6.25 µg/mL / inhibition at 12.5 µg/mL / inhibition at 25 µg/mL / inhibition at 50 µg/mL: read-out: % of growth inhibition
Description: as §1, §2, §3

[3] = system: Candida Glabrata ATCC 90030; conditions: Nakaseomyces glabratus, ATCC90030; for inhibition at 0.09 µg/mL / inhibition at 0.19 µg/mL / inhibition at 0.39 µg/mL / inhibition at 0.78 µg/mL / inhibition at 1.56 µg/mL / inhibition at 3.12 µg/mL / inhibition at 6.25 µg/mL / inhibition at 12.5 µg/mL / inhibition at 25 µg/mL / inhibition at 50 µg/mL: read-out: % of growth inhibition
Description: as §1, §2, §3

[4] = system: Cryptococcus neoformans clinical strain; conditions: for inhibition at 0.09 µg/mL / inhibition at 0.19 µg/mL / inhibition at 0.39 µg/mL / inhibition at 0.78 µg/mL / inhibition at 1.56 µg/mL / inhibition at 3.12 µg/mL / inhibition at 6.25 µg/mL / inhibition at 12.5 µg/mL / inhibition at 25 µg/mL / inhibition at 50 µg/mL: read-out: % of growth inhibition
Description: as §1, §2, §3

[5] = system: Candida albicans ATCC 90029; conditions: for inhibition at 0.09 µg/mL: ATCC90029, 0.09 µg/mL; for inhibition at 0.09 µg/mL / inhibition at 0.19 µg/mL / inhibition at 0.39 µg/mL / inhibition at 0.78 µg/mL / inhibition at 1.56 µg/mL / inhibition at 3.12 µg/mL / inhibition at 6.25 µg/mL / inhibition at 12.5 µg/mL / inhibition at 25 µg/mL / inhibition at 50 µg/mL: read-out: % of growth inhibition; for inhibition at 0.19 µg/mL: ATCC90029, 0.19 µg/mL; for inhibition at 0.39 µg/mL: ATCC90029, 0.39 µg/mL; for inhibition at 0.78 µg/mL: ATCC90029, 0.78 µg/mL; for inhibition at 1.56 µg/mL: ATCC90029, 1.56 µg/mL; for inhibition at 3.12 µg/mL: ATCC90029, 3.12 µg/mL; for inhibition at 6.25 µg/mL: ATCC90029, 6.25 µg/mL; for inhibition at 12.5 µg/mL: ATCC90029, 12.5 µg/mL; for inhibition at 25 µg/mL: ATCC90029, 25 µg/mL; for inhibition at 50 µg/mL: ATCC90029, 50 µg/mL
Description: as §1, §2, §3

[6] = 24 h of incubation, 100% of growth inhibition

For CC(=O)NC(=N)NCCCCNC(=N)NCCCCNC(=N)NCCCCNC(=N)NCCCCN [Cabanillasin], the inhibition at 0.09 µg/mL ([1]; 24 h incubation) was 0%, the inhibition at 0.09 µg/mL ([1]; 48 h incubation) was 0% and the inhibition at 0.19 µg/mL ([1]; 24 h incubation) was 0%. The inhibition at 0.19 µg/mL ([1]; 48 h incubation) was 0%, the inhibition at 0.39 µg/mL ([1]; 24 h incubation) was 0% and the inhibition at 0.39 µg/mL ([1]; 48 h incubation) was 0%. The inhibition at 0.78 µg/mL ([1]; 24 h incubation) was 0%, the inhibition at 0.78 µg/mL ([1]; 48 h incubation) was 0% and the inhibition at 1.56 µg/mL ([1]; 24 h incubation) was 0%. The inhibition at 1.56 µg/mL ([1]; 48 h incubation) was 0%, the inhibition at 3.12 µg/mL ([1]; 24 h incubation) was 9% and the inhibition at 3.12 µg/mL ([1]; 48 h incubation) was 0%. For the same compound, the inhibition at 6.25 µg/mL ([1]; 24 h incubation) was 79%, the inhibition at 6.25 µg/mL ([1]; 48 h incubation) was 31.2% and the inhibition at 12.5 µg/mL ([1]; 24 h incubation) was 91%. It also gave an inhibition at 12.5 µg/mL ([1]; 48 h incubation) of 83%, an inhibition at 25 µg/mL ([1]; 24 h incubation) of 100% and an inhibition at 25 µg/mL ([1]; 48 h incubation) of 88.5%. For the same compound, the inhibition at 50 µg/mL ([1]; 24 h incubation) was 100%, the inhibition at 50 µg/mL ([1]; 48 h incubation) was 92.9% and the IC50 ([1]; 24 h of incubation) was 6.25 µg/mL (≈ 12.2 µM). For the same compound, the MIC [1, 6] was 25 µg/mL (≈ 48.9 µM), the inhibition at 0.09 µg/mL ([2]; 24 h incubation) was 11.7% and the inhibition at 0.09 µg/mL ([2]; 48 h incubation) was 0%. The inhibition at 0.19 µg/mL ([2]; 24 h incubation) was 14.5%, the inhibition at 0.19 µg/mL ([2]; 48 h incubation) was 0% and the inhibition at 0.39 µg/mL ([2]; 24 h incubation) was 11.5%. It also gave an inhibition at 0.39 µg/mL ([2]; 48 h incubation) of 0%, an inhibition at 0.78 µg/mL ([2]; 24 h incubation) of 20.2% and an inhibition at 0.78 µg/mL ([2]; 48 h incubation) of 0%. The inhibition at 1.56 µg/mL ([2]; 24 h incubation) was 64.8%, the inhibition at 1.56 µg/mL ([2]; 48 h incubation) was 0% and the inhibition at 3.12 µg/mL ([2]; 24 h incubation) was 86.7%. For the same compound, the inhibition at 3.12 µg/mL ([2]; 48 h incubation) was 57%, the inhibition at 6.25 µg/mL ([2]; 24 h incubation) was 94.7% and the inhibition at 6.25 µg/mL ([2]; 48 h incubation) was 74.6%. The inhibition at 12.5 µg/mL ([2]; 24 h incubation) was 97.7%, the inhibition at 12.5 µg/mL ([2]; 48 h incubation) was 86.1% and the inhibition at 25 µg/mL ([2]; 24 h incubation) was 100%. For the same compound, the inhibition at 25 µg/mL ([2]; 48 h incubation) was 95.9%, the inhibition at 50 µg/mL ([2]; 24 h incubation) was 100% and the inhibition at 50 µg/mL ([2]; 48 h incubation) was 100%. For the same compound, the IC50 ([2]; 24 h of incubation) was 1.56 µg/mL (≈ 3.05 µM), the MIC [2, 6] was 25 µg/mL (≈ 48.9 µM) and the inhibition at 0.09 µg/mL ([3]; 24 h incubation) was 0%. For the same compound, the inhibition at 0.09 µg/mL ([3]; 48 h incubation) was 0%, the inhibition at 0.19 µg/mL ([3]; 24 h incubation) was 5.5% and the inhibition at 0.19 µg/mL ([3]; 48 h incubation) was 0%. The inhibition at 0.39 µg/mL ([3]; 24 h incubation) was 11.4%, the inhibition at 0.39 µg/mL ([3]; 48 h incubation) was 0% and the inhibition at 0.78 µg/mL ([3]; 24 h incubation) was 15.5%. The inhibition at 0.78 µg/mL ([3]; 48 h incubation) was 0%, the inhibition at 1.56 µg/mL ([3]; 24 h incubation) was 28% and the inhibition at 1.56 µg/mL ([3]; 48 h incubation) was 0%. It also gave an inhibition at 3.12 µg/mL ([3]; 24 h incubation) of 31%, an inhibition at 3.12 µg/mL ([3]; 48 h incubation) of 0% and an inhibition at 6.25 µg/mL ([3]; 24 h incubation) of 49.3%. The inhibition at 6.25 µg/mL ([3]; 48 h incubation) was 0%, the inhibition at 12.5 µg/mL ([3]; 24 h incubation) was 66.2% and the inhibition at 12.5 µg/mL ([3]; 48 h incubation) was 18.5%. The inhibition at 25 µg/mL ([3]; 24 h incubation) was 61.4%, the inhibition at 25 µg/mL ([3]; 48 h incubation) was 44% and the inhibition at 50 µg/mL ([3]; 24 h incubation) was 59%. The inhibition at 50 µg/mL ([3]; 48 h incubation) was 57%, the IC50 ([3]; 24 h of incubation) was 6.25 µg/mL (≈ 12.2 µM) and the inhibition at 0.09 µg/mL ([4]; 48 h incubation) was 0%. It also gave an inhibition at 0.09 µg/mL ([4]; 72 h incubation) of 0%, an inhibition at 0.19 µg/mL ([4]; 48 h incubation) of 0% and an inhibition at 0.19 µg/mL ([4]; 72 h incubation) of 0%. For the same compound, the inhibition at 0.39 µg/mL ([4]; 48 h incubation) was 0%, the inhibition at 0.39 µg/mL ([4]; 72 h incubation) was 0% and the inhibition at 0.78 µg/mL ([4]; 48 h incubation) was 0%. For the same compound, the inhibition at 0.78 µg/mL ([4]; 72 h incubation) was 0%, the inhibition at 1.56 µg/mL ([4]; 48 h incubation) was 0% and the inhibition at 1.56 µg/mL ([4]; 72 h incubation) was 0%. It also gave an inhibition at 3.12 µg/mL ([4]; 48 h incubation) of 23.8%, an inhibition at 3.12 µg/mL ([4]; 72 h incubation) of 0% and an inhibition at 6.25 µg/mL ([4]; 48 h incubation) of 32%. The inhibition at 6.25 µg/mL ([4]; 72 h incubation) was 0%, the inhibition at 12.5 µg/mL ([4]; 48 h incubation) was 47.3% and the inhibition at 12.5 µg/mL ([4]; 72 h incubation) was 0%. The inhibition at 25 µg/mL ([4]; 48 h incubation) was 65.3%, the inhibition at 25 µg/mL ([4]; 72 h incubation) was 0% and the inhibition at 50 µg/mL ([4]; 48 h incubation) was 63.8%. For the same compound, the inhibition at 50 µg/mL ([4]; 72 h incubation) was 0%, the IC50 ([4]; after 48 h) was 25 µg/mL (≈ 48.9 µM) and the IC50 ([4]; after 72 h) was > 50 µg/mL. For the same compound, the inhibition at 0.09 µg/mL ([5]; 24 h incubation) was 34%, the inhibition at 0.09 µg/mL ([5]; 48 h incubation) was 0% and the inhibition at 0.19 µg/mL ([5]; 24 h incubation) was 37%. The inhibition at 0.19 µg/mL ([5]; 48 h incubation) was 0%, the inhibition at 0.39 µg/mL ([5]; 24 h incubation) was 34% and the inhibition at 0.39 µg/mL ([5]; 48 h incubation) was 0%. It also gave an inhibition at 0.78 µg/mL ([5]; 24 h incubation) of 50.5%, an inhibition at 0.78 µg/mL ([5]; 48 h incubation) of 0% and an inhibition at 1.56 µg/mL ([5]; 24 h incubation) of 46.3%. For the same compound, the inhibition at 1.56 µg/mL ([5]; 48 h incubation) was 0%, the inhibition at 3.12 µg/mL ([5]; 24 h incubation) was 45.4% and the inhibition at 3.12 µg/mL ([5]; 48 h incubation) was 0%. It also gave an inhibition at 6.25 µg/mL ([5]; 24 h incubation) of 47.7%, an inhibition at 6.25 µg/mL ([5]; 48 h incubation) of 0% and an inhibition at 12.5 µg/mL ([5]; 24 h incubation) of 70.7%. The inhibition at 12.5 µg/mL ([5]; 48 h incubation) was 0%, the inhibition at 25 µg/mL ([5]; 24 h incubation) was 71% and the inhibition at 25 µg/mL ([5]; 48 h incubation) was 0%. It also gave an inhibition at 50 µg/mL ([5]; 24 h incubation) of 81%, an inhibition at 50 µg/mL ([5]; 48 h incubation) of 18% and an IC50 ([5]; ATCC90029, 24 h of incubation) of 0.78 µg/mL (≈ 1.52 µM).
